According to ChEMBL document CHEMBL1132799, “Hybridization of non-sulfonylurea insulin secretagogue and thiazolidinedione-derived insulin sensitizer” (2000):

Legend:
[1] = system: 3T3-L1; assay: Insulin-sensitizing activity; triglyceride accumulation from insulin regulated differentiation of 3T3-L1 cells at 1 uM expressed as percent activity of pioglitazone; assay type: functional, Mus musculus
[2] = Insulin-releasing activity in HIT-T15 cells in the presence of 16.7 mM glucose at 10 uM expressed as percent activity of nateglinide; assay type: functional, Cricetulus griseus
[3] = system: 3T3-L1; assay: Compound was tested for insulin-sensitizing activity by measuring triglyceride accumulation from insulin regulated differentiation of 3T3-L1 cells at 10 uM expressed as percent activity of pioglitazone; assay type: functional, Mus musculus

## Cc1oc(C2CCCCC2)nc1CCOc1ccc(/C=C(\CC(=O)N2C[C@H]3CCCC[C@H]3C2)C(=O)O)cc1
[1]
  Activity: 83%
[2]
  Activity: 93%

## O=C(O)/C(=C\c1ccc(OCCCc2ccc(C(F)(F)F)cc2)cc1)CC(=O)N1C[C@H]2CCCC[C@H]2C1
[1]
  Activity: 4%
[2]
  Activity: 130%

## CCc1ccc(CCOc2ccc(C[C@@H](CC(=O)N3C[C@H]4CCCC[C@H]4C3)C(=O)O)cc2)nc1
[1]
  Activity: 4%
[3]
  Activity: 11%
[2]
  Activity: 105%

## O=C(O)/C(=C/c1ccc(OCCn2ccc3ccccc32)cc1)CC(=O)N1C[C@H]2CCCC[C@H]2C1
[1]
  Activity: 9%
[2]
  Activity: 105%

## CCc1ccc(CCOc2ccc(C[C@H](CC(=O)N3C[C@H]4CCCC[C@H]4C3)C(=O)O)cc2)nc1
[1]
  Activity: 17%
[3]
  Activity: 55%
[2]
  Activity: 1%

## O=C(O)/C(=C\c1ccc(OCc2ccc(C(F)(F)F)cc2)cc1)CC(=O)N1C[C@H]2CCCC[C@H]2C1
[1]
  Activity: 15%
[2]
  Activity: 130%

## CN(CCOc1ccc(/C=C(\CC(=O)N2C[C@H]3CCCC[C@H]3C2)C(=O)O)cc1)c1nc2ccccc2o1
[1]
  Activity: 121%
[2]
  Activity: 60%

## CN(CCOc1ccc(/C=C(\CC(=O)N2C[C@H]3CCCC[C@H]3C2)C(=O)O)cc1)c1ccccn1
[1]
  Activity: 87%
[2]
  Activity: 60%

## CCc1ccc(CCOc2ccc(/C=C(\CC(=O)N3C[C@H]4CCCC[C@H]4C3)C(=O)O)cc2)nc1
[1]
  Activity: 20%
[3]
  Activity: 50%
[2]
  Activity: 136%

## O=C(O)/C(=C\c1ccc(OCCc2ccc(C(F)(F)F)cc2)cc1)CC(=O)N1C[C@H]2CCCC[C@H]2C1
[1]
  Activity: 5%
[2]
  Activity: 93%

## CCc1ccc(CCOc2ccc(CC(CC(=O)N3C[C@H]4CCCC[C@H]4C3)C(=O)O)cc2)nc1 (stereo partly specified)
[1]
  Activity: 8%
[3]
  Activity: 30%
[2]
  Activity: 68%

## Cc1oc(-c2ccncc2)nc1CCOc1ccc(/C=C(\CC(=O)N2C[C@H]3CCCC[C@H]3C2)C(=O)O)cc1
[1]
  Activity: 93%
[2]
  Activity: 49%

## Cc1oc(-c2ccccc2)nc1CCOc1ccc(/C=C(\CC(=O)N2C[C@H]3CCCC[C@H]3C2)C(=O)O)cc1
[1]
  Activity: 103%
[2]
  Activity: 145%

## CCc1ccc(CCOc2ccc(CC(NC(=O)[C@H]3CC[C@H](C(C)C)CC3)C(=O)O)cc2)nc1 (stereo partly specified)
[1]
  Activity: 2%
[3]
  Activity: 30%
[2]
  Activity: 33%

## Cc1oc(-c2ccccc2)nc1CCOc1ccc(CC(CC(=O)N2C[C@H]3CCCC[C@H]3C2)C(=O)O)cc1 (stereo partly specified)
[1]
  Activity: 45%
[2]
  Activity: 85%

## CC(C)[C@H]1CC[C@H](C(=O)N[C@H](Cc2ccccc2)C(=O)O)CC1 [NATEGLINIDE]
[1]
  Activity: 6%
[3]
  Activity: 40%
[2]
  Activity: 100%

## CCc1ccc(CCOc2ccc(CC3SC(=O)NC3=O)cc2)nc1 (stereo unspecified) [PIOGLITAZONE]
[1]
  Activity: 100%
[3]
  Activity: 100%
[2]
  Activity: 10%
